Columns and labels:
C. glabrata [1] = test: Viability of mature biofilm, XTT assay; format: cell-based, Candida glabrata; conditions: 24 h of incubation with GDA
Method: XXT is a colorimetric assay for quantification of cellular viability, and cytotoxicity. The assay is based on the cleavage of the tetrazolium salt XTT, a conversion that only occurs in viable cells. […] Then the cells were washed 2 times with PBS, after which the XTT reaction mixture was added. After 30 min the optical density measured at 485 nm.

C. glabrata [2] = test: Mature biofilm cell survival, serial dilution plating on YPD; format: cell-based, Candida glabrata; conditions: 0.2 and 0.5 g/ml, 5 h of incubation, 37° C
Method: The plated cells were incubated for 24 h at 37° C. and visually analyzed. The cells from the mature biofilm treated with water were used as a control. […] At the concentrations of 0.2 and 0.5 g/ml after 5 h of incubation the cell viability was decreased by about 100 times for both C. albicans and C. glabrata.

[3] = tested on: Lactobacillus crispatus CCUG 44128; test: MIC microdilution test; format: cell-based; conditions: IsoS-M.R.S., 48 hours, 5% CO2
Method: (§1) Gardnerella vaginalis, Lactobacillus iners, and Lactobacillus crispatus were recovered by CCUG (Culture Collection of University of Gothenburg). Subculture plates were made for G. vaginalis on Chocolate-GL plates and Lactobacillus spp. on M.R.S. agar plates at 5% CO2, 36° C. The inoculums were prepared from the subculture plates. Colonies were inoculated to culture tubes with 5 ml test medium and vortexed 2 min with about 10 glass beads a 3 mm in diameter. Colonies were taken until the turbidity of the solution was OD475 of 0.4-0.5. The bacterial solutions were checked in light microscopy at ×40 with phase contrast to make sure that the cells were dispersed. Each bacterial suspension was diluted in its test medium, 1:100, to equal 1-3×10^6 CFU/ml. The microbial solutions were stored at 20° C. during the preparation of the inoculums
(§2) The test substance solution was prepared aseptically at 1 g/ml in sterile H2O. The first row of wells was filled with 100 μl substance and then 2 fold dilutions were done vertically in 8 steps.
(§3) Next, 100 μl microorganisms were added and the plates were gently shaken at 500 rpm for 30 seconds before incubation at 35° C. and 90% RH in the CO2 incubator set at 5% CO2. After 48 and 72 hours of incubation, the OD was measured and ocular assessments were done. The pH was also measured for all dilutions, n=1, pH=6.8-7.1

[4] = tested on: Gardnerella vaginalis CCUG 3717; test: MIC microdilution test; format: cell-based; conditions: CAMHB, 48 hours, 5% CO2
Method: as §1, §2, §3

Candida albicans = test: Biofilm formation in a model of in vivo conditions (pellet release in pH 3.71 buffer); format: cell-based
Method: (§4) Biofilm was measured in liquid culture as described [K. Scherz et al., G3 (Bethesda), 2014, 4, 1671-1680. I. Serrano-Fujarte et al. Biomed Res Int. 2015; 2015:783639] with some modifications. Prior the biofilm assay, yeast cultures were grown in liquid YPD medium for 24 hours until stationary phase (OD600 11-17)^2, cells were then pelleted by centrifugation (1699 g), washed with sterile water and cells were further inoculated into test biofilm medium (YNB (yeast nitrogen base without amino acids and ammonium sulphate) supplemented with 0.5% ammonium sulphate, 0.2% glucose and 100 mM L-proline pH7.0) at final concentration 0.2 OD600/ml and incubated in 96-well flat-bottom polystyrene microtiter plates (Sigma Aldrich, Corning® Costar® culture plates, CLS3596-50EA) for 72 hours at 37° C. thermostat. At defined time points crystal violet (HT901-8FOZ; Sigma Aldrich) was added to the media at the final concentration 0.05%, in addition total biomass was measured. After 24 hours of cells staining, plate wells were washed four times with 200 μl of water to remove planktonic cells, biofilms were then dried and dissolved in 200 μl of 96% ethanol. Total biomass and crystal violet biofilm staining measurements were performed at OD560 with FLUOstar OPTIMA plate reader, BMG LABTECH. Crystal violet biofilm measurements were normalized to the total biomass (OD560Biofilm/OD560 total biomass).
(§5) Pellet of lactonized/oligomerized gluconic acid (1.3 g, duplicate samples) were added to buffer solution of pH 3.71 (0.5 M KH2PO/ortho phosphoric acid, 10 mL) at 37° C. Samples (4 mL) were taken every hour (1, 2, 3, 4, 5, 6 and 24 h) and new buffer solution (4 mL) was added. The samples were diluted 50 times with biofilm medium (vide supra) and the amount of biofilm formation was measured after 24 h as described above. […]
(§6) Samples (4 mL) were taken at fixed time points (1, 2, 3, 4, 5, 6 and 24 h) and new buffer solution (4 mL) was added. The samples were diluted 50 times with biofilm medium (vide supra) and the amount of biofilm formation was measured after 24 h as described above. […]

Candida glabrata = test: as above; format: cell-based; conditions: pellet 2.5 g in pH 3.71 buffer at 37° C, sample after 1 h, diluted 50 times, biofilm after 24 h
Method: as §4, §5, §6

## O=C1O[C@H](CO)[C@@H](O)[C@H](O)[C@H]1O [GDA, glucono-δ-lactone]
C. glabrata [1]
  decrease in viability of mature biofilm (XTT): strong decrease in viability
C. glabrata [2]
  decrease of cell viability: about 100 times
[3]
  MIC (g/ml): 0.0078 g/ml
[4]
  MIC (g/ml): 0.001 g/ml
Candida albicans; pellet 2.5 g in pH 3.71 buffer at 37° C, sample after 1 h, diluted 50 times, biofilm after 24 h
  Normalized biofilm (% of control), 1 h: 8.3 % of control
Candida albicans; pellet in pH 3.71 buffer, samples 1-24 h diluted 50 times
  duration of preventive effect on biofilm formation from pellet hydrolysis: ≥ 24 h
Candida glabrata
  Normalized biofilm (% of control), 1 h: 71 % of control

Source: patent US12226396B2, “Gluconic acid derivatives for use in the treatment and/or prevention of microbial infections” (GEDEA BIOTECH AB, priority 2017, dated 2025)
